How the values were obtained:
[1] = system: CD47 pyroglutamylation in HAP1 cells; assay: QPCTL inhibitor assay: CD47 pyroglutamylation (CC2C6 / 2D3 staining); assay type: cell-based, human; settings: 48 hours, 10-fold dilutions, maximum 500 μM
Description: An equal volume of HAP1 (200,000/well), A375 (50,000/well) or RKO (100,000/well) cells was added and QPCTL and CD47 knockout cells were taken along in control wells.
After 48 hours incubation at 37 degrees, 5% CO2, cells were washed once with PBS before releasing with 100 μl TrypIE dissociation reagent per well and transfer to V-bottom 96-well plates (Greiner Bio-One) pre-filled with 100 μl FACS buffer (10% FCS/PBS). Cells were spun 3′ at 3000 rpm, washed once with FACS buffer and again spun 3′ at 3000 rpm. Next, cells were incubated for 2 hours at 4 degrees with a mix of 1:500 FITC-conjugated anti-human CD47 clone 2D3 and 1:500 Alexa647-conjugated anti-human CD47 clone CC2C6 for the pyroglutamylation assays. Alternatively, cells were incubated with 50 μl 1:50 recombinant SIRPα-human Fc fusion protein in FACS buffer for the SIRPα assays. For the SIRPα assays, two wash steps followed by spinning 3′ at 3000 rpm and resuspending the cells in FACS buffer before spinning a final time and resuspending and incubating the pellet for 1 hour at 4 degrees in 100 μl 1:100 APC-conjugated rabbit-anti-human antibody. Cells of both assay were spun down and washed twice with FACS buffer to remove unbound antibody. Cells were again spun down and taken up in 300 μl FACS buffer before analyzed on a FACSAria III using FACS Diva software (BS Biosciences). The median fluorescence intensity (MFI) of each sample was linearly transformed to scale between the MFIs of wildtype and CD47 knockout cells in case of the 2D3 antibody and the wildtype and QPCTL knockout cells in case of the CC2C6 antibody.

[2] = target: T1, recombinant human isoQC (Homo sapiens, UniProt Q9NXS2); assay: IsoQC assay (coupled H-Gln-AMC / pGAPase fluorescence assay); assay type: biochemical; settings: 10 μM H-Gln-AMC, 1 hour at 37° C., maximum and ten- and hundredfold lower concentrations
T1 construct: enzymatically active region of human isoQC (S53-L382, Huang et al., JBC, 286, 12439-12449, 2011); GST with enterokinase site (N, cleaved yes); made in house; host or cells: E. coli, pET41(+) vector
Source text: The Golgi luminal, enzymatically active region of human isoQC (S53-L382, Huang et al., JBC, 286, 12439-12449, 2011) was obtained by expression in E. coli of an N-terminally GST-Enterokinase, C-terminally 6× His tagged construct (“6× His” disclosed as SEQ ID NO: 15) in the pET41(+) vector and subsequent purification and enterokinase digestion. Absence of pyroglutamylating activity in an enzymatic dead variant that was cloned, expressed and purified in parallel ruled out that the purification strategy isolates any endogenously present pyroglutamylating activity.
Inhibition of isoQC activity was assessed by incubating 30 μl 50 mM Tris pH8.0 solutions containing 10 μM H-Gln-AMC (Bachem cat.no. 4003647.0100, dissolved in 25 mM HEPES), 1% DMSO and 750 pg/μl recombinant isoQC in the presence or absence of inhibitor for 1 hour at 37° C. A 5-minute incubation at 98° C. followed to stop the reaction and inactivate the enzyme. Next, 25 μl of the reaction was transferred to a 384-well plate containing 25 μl pGAPase enzyme (1:200 diluted in 50 mM Tris pH8.0, 10 mM Dithiothreitol (DTT), enzyme obtained from Qiagen, cat. no. 34342) and incubated for 10 minutes at 37° C. before reading the fluorescence using a SpectraMax Id3 platereader with excitation wavenlength set at 380 nm and emission at 450 nm. Readings were corrected by subtracting background signal from a control well containing no isoQC enzyme and subsequently normalized by dividing through the signal of a well containing enzyme but no inhibitor.

[3] = system: short-term cultures of melanoma xenografts; assay: SEN177 treatment of short-term melanoma PDX cell lines, FACS binding; assay type: cell-based, human; settings: 10 μM SEN177 for 4 days, six cultures
Source text: Cell lines: Short-term cell lines from primary melanoma patient-derived xenografts (PDX) were generated as described (Kemper et al., EMBO Mol. Med. 7, 1104-1118, 2015) and were a gift from D. Peeper and K. Kemper. […]

[4] = system: B16F10 melanoma cells and Ba/F3-Her2 pro-B cells; assay: SEN177 treatment of murine cells, mSIRPα-Fc and αmCD47-MIAP301 binding, flow cytometry; assay type: cell-based; settings: SEN177, both cell lines
Description: (§1) After indicated antibody stainings, cells were washed with FACS buffer to remove unbound antibody and DAPI was added to allow dead cell exclusion and samples were analyzed on an LSRII or LSRFortessa (BD Bioscience).
(§2) DMSO or inhibitor was refreshed every day and after four days, cells were analyzed by flow cytometry.

[5] = system: Ba/F3-Her2 cells; assay: ADCC of 51Cr-labeled Ba/F3-Her2 target cells by mouse effector cells; assay type: cell-based; settings: murine immune cells isolated from whole blood as effector cells, anti-Her2 IgA1
Description: (§3) Briefly, 1×10^6 target cells were labelled with 100 μCi (3.7 MBq) ^51Cr for 2 h. After extensive washing, cell numbers were adjusted to 1×10^6/mL. The polymorphonuclear leukocyte (PMN) fraction from peripheral blood of healthy donors (UMC Utrecht, Utrecht) was isolated by Ficoll/Histopaque separation (GE Healthcare; Sigma-Aldrich). Effector cells and target cells were added to round-bottom microtiter plates (Corning Incorporated) (E:T ratio=40:1), in the presence of the indicated concentration of a Her2 antibody. After 4 h incubation at 37° C., ^51Cr release was measured. Percentage specific lysis was calculated using the following formula: ((experimental cpm—basal cpm)/(maximal cpm—basal cpm))×100, with maximal lysis determined in the presence of 3% triton and basal lysis determined in the absence of antibody and effector cells. […] All experiments were performed in triplicate.
In brief, to obtain mouse effector cells, blood was collected from pegylated granulocyte colony-stimulating factor (G-CSF)-stimulated human FcaRl transgenic Balb/c mice from the retro-orbital plexus into Li-heparin tubes. Erythrocytes were lysed by incubation in water for […], and total leukocytes were resuspended in medium (half the volume of the original blood volume). 50 μL of total leukocytes, containing ˜70% PMNs, were added per well.

[6] = system: pyroglutamate-modified CD47 in A375 melanoma cells; assay: Analysis of αCD47-CC2C6 / αCD47-B6H12 immunoprecipitates of HA-tagged CD47; assay type: cell-based, human; settings: untreated versus SEN177-treated cells, 10 μM SEN177 for 16 h
Description: At the day of analysis, cells were starved in methionine- and cysteine-free medium for 1 h at 37° C. Subsequently, cells were pulse-labelled with 0.75 mCi/600 μL [^35S]Cys/[^35S]Met (PerkinElmer) for the indicated time period. Cells were washed with PBS to remove residual [^35S]Cys/[^35S]Met and then cultured in regular medium with 1 mM ‘cold’ methionine and cysteine for the indicated time period. Cells were lysed and [^35S]Cys/[^35S] incorporation was measured via TCA precipitation of aliquots of lysates on 3 MM Whatman paper and counting in a Perkin Elmer LSC 2800 ultima gold scintillation counter. Next, for pre-clearing and IP purposes, purified mouse IgG1 kappa isotype control (Biolegend, 400102), anti-human CD47 antibody B6H12.2 (Novus, NBP2-31106), and purified anti-human CD47 antibody CC2C6 (Biolegend, 323102) was bound to protein-G-coated Dynabeads (ThermoFisher Scientific) according to manufacturer's instructions. […] Next, immunoprecipitates were heated at 50° C. for 10 min with 2× Laemmli buffer and analyzed using a Novex NuPAGE Gel Electrophoresis System (Thermo Fisher Scientific). Gels were treated with 1 M Na salicylate pH 5.6 before drying and then analyzed on Fujifilm BAS-MP phosphor imager screens 4° C. Screens were analyzed on a lasser scanner Typhoon FLA 9500.

[7] = system: A375, A431, Raji, A549, DLD1, HAP1, RKO and SKBR3 cells; assay: SEN177 and PQ912 treatment, cell surface binding of hSIRPα-Fc and anti-CD47 antibodies, flow cytometry; assay type: cell-based, human; design: dose or concentration left out as unconfirmed; settings: refreshed every day, four days
Description: as §1, §2

[8] = system: Ba/F3-Her2 cells; assay: ADCC of 51Cr-labeled Ba/F3-Her2 target cells by human effector cells; assay type: cell-based, murine; settings: human neutrophils, with anti-Her2, 10 μM SEN177, 4 h 51Cr-release
Description: as §3

[9] = system: QPCTL-deficient lung cancer (A549) and epidermoid carcinoma (A431) cells; assay: SEN177 treatment of QPCTL-deficient cells, SIRPα binding by flow cytometry; assay type: cell-based, human
Description: as §1, §2

[10] = Phase 1 study with 200 healthy young and elderly volunteers; cited from earlier work
[11] = system: QPCT and QPCTL; settings: Phase 1 study with 200 healthy young and elderly volunteers; cited from earlier work
[12] = system: HAP1, RKO, A375, A549 and DLD1 cells; settings: PBD150 1000 microM, 72 hours, medium refreshed every 24 hours
Description: (§4) Surface levels of CD47 were assessed by performing immunohistochemical staining cells with fluorochrome labelled antibodies directed against CD47 (clones CC2C6, 2D3, B6H12., see Table 1) at a dilution of 1:50 in PBS containing 0.5% w/v BSA (Sigma) and 0.2% w/v sodium azide (Sigma) (“FACS buffer”) for 30 minutes, at 4° C., protected from light. SIRPα binding to CD47 was assessed by incubating cells with recombinant extracellular domain of human SIRPα fused to human IgG ((SIRPα-Fc); Recombinant Human SIRP alpha/CD172a Fc Chimera Protein see Table 1) at a dilution of 1:50 in FACS buffer for 30 minutes, at 4° C., protected from light. After 1 wash with FACS buffer to remove unbound SIRPα-Fc, cells were immunostained with a fluorochrome labelled antibody against human IgG (HP6017, see Table 1) for 30 minutes, at 4° C., protected from light. After 2 washes with FACS buffer to remove unbound antibody, immunohistochemical staining intensity or binding intensity was analyzed on an LSRII (BD Bioscience).
Next, HAP1, RKO, A375, A549 and DLD1 cells were treated for 72 hours with PBD150 (1000 microM) or vehicle and medium was refreshed every 24 hours.

[13] = target: human QPCTL (Homo sapiens, UniProt Q9NXS2); settings: cited from earlier work
[14] = system: HAP1 cells; assay: Small molecule inhibition of glutaminyl cyclase: anti-CD47 clone CC2C6 binding, flow cytometry; assay type: cell-based, human
Description: as §4

T1 sequence (Q9NXS2 53-382): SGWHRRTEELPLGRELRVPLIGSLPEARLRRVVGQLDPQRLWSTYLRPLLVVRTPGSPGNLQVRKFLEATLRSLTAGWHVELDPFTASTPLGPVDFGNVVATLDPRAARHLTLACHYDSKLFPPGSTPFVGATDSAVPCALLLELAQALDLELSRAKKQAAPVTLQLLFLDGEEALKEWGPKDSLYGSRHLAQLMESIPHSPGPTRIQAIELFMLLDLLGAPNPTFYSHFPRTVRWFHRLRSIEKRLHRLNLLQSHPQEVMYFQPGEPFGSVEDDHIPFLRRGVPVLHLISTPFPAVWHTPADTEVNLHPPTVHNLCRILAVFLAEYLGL
Sequence of human QPCTL (Q9NXS2 whole entry): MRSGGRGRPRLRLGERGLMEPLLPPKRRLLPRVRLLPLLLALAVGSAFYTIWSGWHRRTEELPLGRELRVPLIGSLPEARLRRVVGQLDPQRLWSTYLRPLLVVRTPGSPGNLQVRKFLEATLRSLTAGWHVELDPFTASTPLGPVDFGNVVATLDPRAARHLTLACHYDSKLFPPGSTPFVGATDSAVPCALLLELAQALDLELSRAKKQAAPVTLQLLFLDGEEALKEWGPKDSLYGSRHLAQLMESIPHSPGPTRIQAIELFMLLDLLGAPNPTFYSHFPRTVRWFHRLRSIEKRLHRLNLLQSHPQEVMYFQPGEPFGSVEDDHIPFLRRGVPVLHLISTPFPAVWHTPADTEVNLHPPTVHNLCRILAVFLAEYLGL

Cc1ccc(C2C(=S)NC(=O)N2c2ccc3[nH]cnc3c2)c(F)c1F (centres unmarked) [compound 000040, 1-(1H-benzo[d]imidazol-5-yl)-5-(2,3-difluoro-4-methylphenyl)-4-thioxoimidazolidin-2-one]
pE-CD47 signal (antibody clone CC2C6) [1]: did not show convincing reactivity
isoQC activity [2]: did show some activity

Cn1cnnc1C1CCN(c2ncccc2-c2ccc(F)nc2)CC1 [SEN177]
CD47 protein levels [3]: unaltered
Binding of SIRPα ([3]; versus untreated cells): significantly decreased
binding of SIRPα (mSIRPα-Fc) [4]: reduced
total CD47 surface levels [4]: without altering
lysis of tumor cells by murine immune cells [5]: same effects
pyroglutamate-modified CD47 [6]: near-complete inhibition
CD47 surface levels [7]: unaffected
SIRPα-Fc staining ([7]; 8 out of 8 cell lines tested, same extent as in QPCTL deficient cells): reduced
neutrophil-mediated lysis of tumor cells [8]: synergized
SIRPα binding [9]: did not further reduce

O=C(C1=C(O)C(=O)N(c2ccc3[nH]cnc3c2)C1c1cccc(F)c1F)c1ccccc1 (centres unmarked) [compound 000033, 1-(1H-benzo[d]imidazol-5-yl)-4-benzoyl-5-(2,3-difluorophenyl)-3-hydroxy-1H-pyrrol-2(5H)-one]
pE-CD47 signal (antibody clone CC2C6) [1]: did not show convincing reactivity
isoQC activity [2]: did show some activity

O=C(C1=C(O)C(=O)N(c2ccc3[nH]cnc3c2)C1c1ccc(Cl)c(Cl)c1)C1CCCCC1 (centres unmarked) [compound 000015, 1-(1H-Benzoimidazol-5-yl)-4-cyclohexanecarbonyl-5-(3,4-dichloro-phenyl)-3-hydroxy-1,5-dihydro-pyrrol-2-one]
pE-CD47 signal (antibody clone CC2C6) [1]: did not show convincing reactivity
isoQC activity [2]: did show some activity

Cc1ccc(C2C(c3ccc(O)cc3)=C(O)C(=O)N2CCCn2ccnc2)cc1 (centres unmarked) [compound 000046, 3-Hydroxy-4-(4-hydroxy-phenyl)-1-(3-imidazol-1-yl-propyl)-5-p-tolyl-1,5-dihydro-pyrrol-2-one]
pE-CD47 signal (antibody clone CC2C6) [1]: did not show convincing reactivity
isoQC activity [2]: did show some activity

CCCOc1ccc([C@H]2CNC(=O)N2c2ccc3[nH]cnc3c2)cc1 [PQ912, (S)-1-(1H-benzo[d]imidazole-5-yl)-5-(4-propoxyphenyl)imidazolidin-2-one]
safety and tolerability [10]: safe and well-tolerated
level of QPCT and QPCTL inhibition [11]: high level

COc1ccc(NC(=S)NCCCn2ccnc2)cc1OC [PBD150]
2D3 binding [12]: unchanged
CC2C6 binding [12]: decreased
SIRPα-Fc binding [12]: decreased
Ki [13]: 60 nM
CC2C6 binding after withdrawal ([14]; HAP1 cells subsequently cultured 48 hrs without PBD150): restored to normal levels
CC2C6 bound to the surface ([14]; HAP1 cells, 72 hours, PBD150 1000 microM): decreased

— patent publication US20190365717A1, “TREATING PATHOLOGICAL CONDITIONS BY DIRECT AND INDIRECT TARGETING OF SIRPA-CD47 INTERACTION” (STICHTING HET NEDERLANDS KANKER INSTITUUT-ANTONI VAN …, priority 2017, published 2019)
